{
  "source": "ChEMBL document CHEMBL1201862",
  "about": "“PubChem BioAssay data set” (2004)",
  "key": {"[1]": {"assay": "off-target signal loss in HeLa-CEM21 co-culture – HeLa F-luc CTL cells, cherry-picked, counter-screen for HIV-1 Env fusion inhibitor project, dose response (AID 652040);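 note: potency for signal decrease marking cytotoxic or nonspecific inhibition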", "type": "functional, cell-based"}, "[2]": {"assay": "Shn3 3'UTR reporter inhibitors, dose response, cell-based, Clone20 osteoblasts, firefly luciferase, cherry-picked (AID 624132)", "type": "functional"}, "[3]": {"assay": "HepG2 cell cytotoxicity, dose response, cytotoxicity control for Shn3 inhibitor project, CellTiter-Glo, cherry-picked (AID 624134)", "type": "functional, cell-based"}, "[4]": {"assay": "inhibitors of clade B AD8 Env fusion, dose response, cell-based, cherry-pick (AID 652062);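 note: potency is for inhibitors of fusion seen as a drop in luminescence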", "type": "functional"}, "HEK293 [5]": {"system": "HEK293", "assay": "inhibitors of LMP1-driven NF-kB reporter, dose response, cell-based, HEK293, luciferase, cherry-pick (AID 588343)", "type": "functional", "conditions": "Homo sapiens"}, "[6]": {"assay": "control 3'UTR Renilla luciferase suppression, dose response, counter-screen for Shn3 inhibitor project, cell-based, Clone20-Shn3RL, cherry-picked (AID 624133)", "type": "functional"}, "[7]": {"target": "COUP transcription factor 2 (Homo sapiens, UniProt P24468)", "sequence (P24468 whole entry)": "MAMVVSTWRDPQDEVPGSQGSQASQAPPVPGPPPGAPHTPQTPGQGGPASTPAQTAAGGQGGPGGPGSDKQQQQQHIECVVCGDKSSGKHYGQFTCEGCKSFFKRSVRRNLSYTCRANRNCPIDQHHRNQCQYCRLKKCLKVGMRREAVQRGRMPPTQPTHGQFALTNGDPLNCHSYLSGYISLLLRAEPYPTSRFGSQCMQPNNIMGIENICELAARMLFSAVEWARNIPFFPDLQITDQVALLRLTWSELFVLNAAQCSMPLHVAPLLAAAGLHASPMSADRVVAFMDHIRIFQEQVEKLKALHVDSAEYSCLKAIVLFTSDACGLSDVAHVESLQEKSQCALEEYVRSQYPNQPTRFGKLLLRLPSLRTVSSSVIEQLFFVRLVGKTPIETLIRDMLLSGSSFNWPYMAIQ", "assay": "Luminescence-based cell-based high throughput dose response assay to identify inhibitors of COUP-TFII (NR2F2).", "type": "functional"}, "[8]": {"assay": "inhibitors of HIV Env-driven cell fusion, dose response, cherry-pick (AID 652057)", "type": "functional, cell-based"}, "[9]": {"assay": "ZM109 Env clade C HIV-1 fusion inhibitors, dose response, HeLa effector, CEM target cells, luciferase, cherry-pick (AID 652058)", "type": "functional, cell-based"}, "[10]": {"assay": "A549 cell cytotoxicity, dose response, cytotoxicity control, plate reader, cherry-pick, antagonist series (AID 743412)", "type": "functional, cell-based"}, "[11]": {"assay": "HEK293 cell cytotoxicity, dose response, cytotoxicity control, plate reader, cherry-picked samples (AID 743446)", "type": "functional, cell-based"}, "INS1": {"system": "INS1", "assay": "beta cell apoptosis inhibitors, cytokine rescue, dose response, luminescence, retest (AID 449756);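 note: cell death triggered by IL-1 beta plus TNF-alpha plus IFN-gamma mixture; protective hits raise ATP signal compared with cytokine alone wells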", "type": "functional, cell-based", "conditions": "Rattus norvegicus"}, "[12]": {"assay": "HepG2 cell cytotoxicity, dose response, cytotoxicity control, plate reader, cherry-pick, antagonist series (AID 743416)", "type": "functional, cell-based"}, "[13]": {"assay": "LGR2 antagonists, dose response, cell-based, HEK293, CRE-luciferase reporter, cherry pick, set 2 (AID 743343);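 note: transfected cells were stimulated with diluted bursicon conditioned medium after compound addition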", "type": "functional"}, "cells [14]": {"assay": "cells", "type": "functional, cell-based"}, "[15]": {"target": "T1, Trace amine-associated receptor 1 (Homo sapiens, UniProt Q96RJ0)", "T1 sequence (Q96RJ0 whole entry)": "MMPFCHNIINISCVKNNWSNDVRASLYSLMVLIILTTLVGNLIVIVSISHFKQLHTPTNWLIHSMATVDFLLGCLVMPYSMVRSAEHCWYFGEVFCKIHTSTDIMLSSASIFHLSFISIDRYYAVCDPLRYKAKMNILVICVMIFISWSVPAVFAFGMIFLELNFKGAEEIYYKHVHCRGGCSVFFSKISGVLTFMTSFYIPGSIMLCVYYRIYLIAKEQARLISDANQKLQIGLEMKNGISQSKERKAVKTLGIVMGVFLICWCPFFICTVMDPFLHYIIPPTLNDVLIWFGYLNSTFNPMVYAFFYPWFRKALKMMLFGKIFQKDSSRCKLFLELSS", "assay": "Fluorescence-based cell-based high throughput dose response assay to identify agonists of the human trace amine associated receptor 1 (TAAR1).", "type": "functional"}, "cells [16]": {"assay": "cells", "type": "functional, cell-based", "remark": "listed apart in the source"}, "[17]": {"target": "T1, Trace amine-associated receptor 1", "assay": "Counterscreen for agonists of the human trace amine associated receptor 1 (hTAAR1): Fluorescence-based cell-based high throughput dose response assay to identify hTAAR1 agonist that also desensitize TAAR1 receptor response.", "type": "functional"}, "[18]": {"target": "NAD-dependent protein deacylase sirtuin-5, mitochondrial (Homo sapiens, UniProt Q9NXA8)", "sequence (Q9NXA8 whole entry)": "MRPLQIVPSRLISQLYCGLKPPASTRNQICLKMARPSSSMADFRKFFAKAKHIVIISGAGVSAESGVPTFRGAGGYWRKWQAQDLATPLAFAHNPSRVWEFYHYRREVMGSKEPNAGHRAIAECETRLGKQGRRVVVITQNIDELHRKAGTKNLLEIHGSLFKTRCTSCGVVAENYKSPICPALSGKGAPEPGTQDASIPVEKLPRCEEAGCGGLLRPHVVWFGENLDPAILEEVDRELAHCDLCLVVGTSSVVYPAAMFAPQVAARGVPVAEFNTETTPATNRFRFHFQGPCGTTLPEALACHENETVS", "assay": "SIRT5 desuccinylase inhibitors, dose response, biochemical, fluorescence imaging, cherry-pick, set 5 (AID 720591);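 note: desuccinylation of succinyl peptide AMC substrate read as fluorescence after trypsin release; potency of inhibitors that lower fluorescence and may act on trypsin instead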"}, "[19]": {"assay": "MC4R antagonists, dose response, counter-screen for LGR2 antagonist project, cell-based, plate reader, cherry pick (AID 743444);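 note: transfected HEK 293 cells stimulated with alpha-MSH peptide; potency of inhibitors of the alpha-MSH evoked signal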", "type": "functional"}, "[20]": {"assay": "cytotoxicity in HEK-293T cells, dose response, cytotoxicity control for TCR NF-kB inhibitor project, luminescence, T-cell screen hits (AID 489026);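 note: cells exposed to compound about 14 hours before the viability readout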", "type": "functional, cell-based"}, "[21]": {"target": "T2, Microphthalmia-associated transcription factor (Homo sapiens, UniProt O75030)", "T2 sequence (O75030 whole entry)": "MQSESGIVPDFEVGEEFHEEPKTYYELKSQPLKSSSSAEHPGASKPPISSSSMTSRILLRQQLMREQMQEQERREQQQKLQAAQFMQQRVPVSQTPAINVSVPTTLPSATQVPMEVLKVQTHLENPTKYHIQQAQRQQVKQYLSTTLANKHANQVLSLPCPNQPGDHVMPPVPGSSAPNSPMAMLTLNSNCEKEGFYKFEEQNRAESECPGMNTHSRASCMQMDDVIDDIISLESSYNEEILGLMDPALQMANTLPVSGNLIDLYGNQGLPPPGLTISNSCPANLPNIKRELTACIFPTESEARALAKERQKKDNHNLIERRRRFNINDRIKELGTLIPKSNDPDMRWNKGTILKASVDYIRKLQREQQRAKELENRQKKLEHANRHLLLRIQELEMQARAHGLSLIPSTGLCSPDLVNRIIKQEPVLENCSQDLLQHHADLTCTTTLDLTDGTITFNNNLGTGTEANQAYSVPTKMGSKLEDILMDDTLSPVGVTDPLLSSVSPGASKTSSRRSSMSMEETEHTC", "assay": "TRPM1 promoter luciferase signal decrease, dose response, MITF inhibitor project, cell-based, SK-MEL-5, cherry-picked, set 3 (AID 493073)", "type": "functional"}, "HEK293 [22]": {"system": "HEK293", "assay": "cells", "conditions": "Homo sapiens"}, "HEK293 [23]": {"system": "HEK293", "assay": "cells", "conditions": "Homo sapiens", "remark": "listed apart in the source"}, "[24]": {"assay": "CEM21 lymphoblast cell cytotoxicity, dose response, cytotoxicity control for viral fusion inhibitor project, CellTiter-Glo luminescence, cherry-picked (AID 652042);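 note: potency for signal decrease meaning cytotoxicity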", "type": "functional, cell-based"}, "[25]": {"target": "Tyrosyl-DNA phosphodiesterase 2 (Homo sapiens, UniProt O95551)", "sequence (O95551 whole entry)": "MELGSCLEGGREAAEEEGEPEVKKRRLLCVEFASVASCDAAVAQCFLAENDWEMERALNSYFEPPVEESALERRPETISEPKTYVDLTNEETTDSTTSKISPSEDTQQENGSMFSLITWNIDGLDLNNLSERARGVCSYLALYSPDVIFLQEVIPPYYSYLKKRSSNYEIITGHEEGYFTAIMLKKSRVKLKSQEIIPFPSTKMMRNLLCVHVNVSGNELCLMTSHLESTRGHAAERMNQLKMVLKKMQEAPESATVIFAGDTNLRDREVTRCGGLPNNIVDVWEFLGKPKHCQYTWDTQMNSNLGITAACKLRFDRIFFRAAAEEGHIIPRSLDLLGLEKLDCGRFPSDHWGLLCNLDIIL", "assay": "human TDP2 enzyme inhibitors, dose response, biochemical, epi absorbance, IC50 (AID 743297)"}, "[26]": {"assay": "HEK293 cell cytotoxicity, dose response, cytotoxicity control, cherry-picks, set 5 (AID 1053117)", "type": "functional, cell-based"}},
  "note": "Active and inactive are the calls of the source.",
  "data": [
    {"smiles": "COc1ccc(CNc2ncnc3ccccc23)cc1", "values": [
      {"measurement": "AC50", "setting": "[1]", "value": "> 70 µM (inactive)"},
      {"measurement": "AC50", "setting": "[2]", "value": "0.674 µM (active)"},
      {"measurement": "AC50", "setting": "[3]", "value": "3.67 µM (active)"},
      {"measurement": "AC50", "setting": "[4]", "value": "5.24 µM (active)"},
      {"measurement": "AC50", "setting": "HEK293 [5]", "value": "33.1 µM (active)"},
      {"measurement": "AC50", "setting": "[6]", "value": "5.4 µM (active)"},
      {"measurement": "IC50", "setting": "[7]", "value": "10.7 µM (inactive)"},
      {"measurement": "AC50", "setting": "[8]", "value": "36.2 µM (active)"},
      {"measurement": "AC50", "setting": "[9]", "value": "24.9 µM (active)"}
    ]},
    {"smiles": "CC(=O)c1ccc(Nc2cc(C)nc3c(C)cc(C)cc23)cc1", "values": [
      {"measurement": "AC50", "setting": "[10]", "value": "2.54 µM (active)"},
      {"measurement": "AC50", "setting": "[11]", "value": "23.9 µM (active)"},
      {"measurement": "AC50", "setting": "INS1", "value": "5.22 µM (active)"},
      {"measurement": "AC50", "setting": "[12]", "value": "1.9 µM (active)"},
      {"measurement": "AC50", "setting": "[13]", "value": "40.3 µM (active)"}
    ]},
    {"smiles": "COc1ccc2cc(CN(CCc3ccccc3)Cc3nnnn3CC3CCCO3)c(O)nc2c1", "note": "(stereo unspecified)", "values": [
      {"measurement": "IC50", "setting": "cells [14]", "value": "> 29.9 µM (inactive)"},
      {"measurement": "EC50", "setting": "[15]", "value": "4.42 µM (active)"},
      {"measurement": "EC50", "setting": "cells [16]", "value": "> 29.9 µM (inactive)"},
      {"measurement": "IC50", "setting": "[17]", "value": "8.83 µM (active)"}
    ]},
    {"smiles": "CC(C)(C)NC(=O)CSc1nc2cccnc2n1C1CCCCC1", "values": [
      {"measurement": "AC50", "setting": "[18]", "value": "> 30 µM (inactive)"}
    ]},
    {"smiles": "CCn1c(C)cc(C(=O)CN2C(=O)c3ccccc3S2(=O)=O)c1C", "values": [
      {"measurement": "AC50", "setting": "[19]", "value": "1.16 µM (active)"},
      {"measurement": "AC50", "setting": "[1]", "value": "4.71 µM (active)"},
      {"measurement": "AC50", "setting": "[4]", "value": "0.358 µM (active)"},
      {"measurement": "IC50", "setting": "[20]", "value": "> 80 µM (inactive)"},
      {"measurement": "AC50", "setting": "[13]", "value": "1.46 µM (active)"},
      {"measurement": "AC50", "setting": "[21]", "value": "1.99 µM (active)"},
      {"measurement": "AC50", "setting": "[8]", "value": "2.09 µM (active)"},
      {"measurement": "AC50", "setting": "[9]", "value": "7.25 µM (active)"}
    ]},
    {"smiles": "CC(=O)Nc1ccc(N(CC(O)Cn2c3ccccc3c3ccccc32)S(=O)(=O)c2ccc(C)cc2)cc1", "note": "(stereo unspecified)", "values": [
      {"measurement": "EC50", "setting": "HEK293 [22]", "value": "> 59.7 µM (inactive)"},
      {"measurement": "AC50", "setting": "[1]", "value": "1.6 µM (active)"},
      {"measurement": "EC50", "setting": "HEK293 [23]", "value": "> 59.7 µM (inactive)"},
      {"measurement": "AC50", "setting": "[4]", "value": "2.8 µM (active)"},
      {"measurement": "AC50", "setting": "[24]", "value": "28.4 µM (active)"},
      {"measurement": "AC50", "setting": "[8]", "value": "0.507 µM (active)"},
      {"measurement": "AC50", "setting": "[9]", "value": "0.558 µM (active)"}
    ]},
    {"smiles": "COC1=C(N2CCOCC2)C(=O)c2ccccc2C1=O", "values": [
      {"measurement": "IC50", "setting": "[25]", "value": "77.2 µM (inactive)"}
    ]},
    {"smiles": "C=CCC[C@H](Cc1ccc(F)cc1)C(=O)OC[C@H](Cc1c[nH]c2ccccc12)NC(=O)[C@@H](CC=C)CC(=O)N[C@@H](CO)Cc1ccccc1", "values": [
      {"measurement": "AC50", "setting": "[26]", "value": "> 52 µM (inactive)"}
    ]}
  ]
}
